Assays:
Assay in all cases: Kinase selectivity, DiscoverX scanMAX Kinase assay panel (% control)
Assay type in all cases: binding
[1] = target: T1, kinases of the scanMAX Kinase assay panel (Homo sapiens, UniProt O15146); details: MUSK; 1 uM
T1 construct: purchased DiscoverX Co. (contract measurement) scanMAX Kinase assay panel
T1 sequence (O15146 24-869): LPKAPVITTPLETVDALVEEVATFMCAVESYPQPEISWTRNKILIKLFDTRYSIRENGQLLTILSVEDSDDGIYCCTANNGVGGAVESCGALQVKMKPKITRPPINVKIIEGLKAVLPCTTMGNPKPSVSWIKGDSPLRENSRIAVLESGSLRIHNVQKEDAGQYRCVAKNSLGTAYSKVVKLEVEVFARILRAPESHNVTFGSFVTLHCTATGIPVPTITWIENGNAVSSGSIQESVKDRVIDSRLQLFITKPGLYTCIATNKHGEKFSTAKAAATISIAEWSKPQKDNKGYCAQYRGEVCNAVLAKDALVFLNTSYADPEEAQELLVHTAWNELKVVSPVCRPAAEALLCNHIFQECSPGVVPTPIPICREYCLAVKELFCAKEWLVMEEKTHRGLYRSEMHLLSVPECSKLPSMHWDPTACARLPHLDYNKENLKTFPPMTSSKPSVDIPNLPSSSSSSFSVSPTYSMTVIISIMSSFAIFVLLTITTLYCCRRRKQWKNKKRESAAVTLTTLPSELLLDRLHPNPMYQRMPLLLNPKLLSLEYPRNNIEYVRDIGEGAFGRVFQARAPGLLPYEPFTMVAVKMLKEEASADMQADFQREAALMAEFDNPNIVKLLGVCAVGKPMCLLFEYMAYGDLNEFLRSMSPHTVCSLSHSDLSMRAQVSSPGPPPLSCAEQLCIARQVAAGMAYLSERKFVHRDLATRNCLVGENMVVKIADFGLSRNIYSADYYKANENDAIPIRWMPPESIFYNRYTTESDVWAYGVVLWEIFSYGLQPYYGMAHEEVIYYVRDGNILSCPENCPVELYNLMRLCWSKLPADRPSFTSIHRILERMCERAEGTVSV
Outline: (§1)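 A 1 uM DMSO solution of compound was applied across the panel kinases, and results were expressed as % control relative to DMSO (100%) and a positive control (0%).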

[2] = target: T2, kinases of the scanMAX Kinase assay panel (Homo sapiens, UniProt P35626); details: GRK3; 1 uM
T2 construct: purchased DiscoverX Co. (contract measurement) scanMAX Kinase assay panel
T2 sequence (P35626 1-688): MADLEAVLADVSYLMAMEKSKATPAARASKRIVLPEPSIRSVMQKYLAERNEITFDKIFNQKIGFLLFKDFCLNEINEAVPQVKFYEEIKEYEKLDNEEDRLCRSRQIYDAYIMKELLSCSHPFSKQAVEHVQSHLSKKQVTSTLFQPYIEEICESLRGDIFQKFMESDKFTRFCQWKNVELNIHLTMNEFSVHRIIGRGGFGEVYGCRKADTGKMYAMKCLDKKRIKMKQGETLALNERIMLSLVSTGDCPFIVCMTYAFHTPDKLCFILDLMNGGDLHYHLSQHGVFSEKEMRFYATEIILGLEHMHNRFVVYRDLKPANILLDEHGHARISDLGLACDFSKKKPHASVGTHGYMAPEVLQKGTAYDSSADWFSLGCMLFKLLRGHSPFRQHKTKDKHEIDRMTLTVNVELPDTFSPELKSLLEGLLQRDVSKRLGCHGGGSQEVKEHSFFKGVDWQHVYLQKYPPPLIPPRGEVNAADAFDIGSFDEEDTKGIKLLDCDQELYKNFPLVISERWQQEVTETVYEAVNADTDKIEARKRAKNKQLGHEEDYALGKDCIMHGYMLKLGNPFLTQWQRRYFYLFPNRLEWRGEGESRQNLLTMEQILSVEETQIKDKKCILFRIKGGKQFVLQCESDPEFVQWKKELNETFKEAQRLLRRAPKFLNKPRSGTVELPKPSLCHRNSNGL
Outline: as §1

[3] = target: T3, kinases of the scanMAX Kinase assay panel (Homo sapiens, UniProt Q8NE63); details: HIPK4; 1 uM
T3 construct: purchased DiscoverX Co. (contract measurement) scanMAX Kinase assay panel
T3 sequence (Q8NE63 1-616): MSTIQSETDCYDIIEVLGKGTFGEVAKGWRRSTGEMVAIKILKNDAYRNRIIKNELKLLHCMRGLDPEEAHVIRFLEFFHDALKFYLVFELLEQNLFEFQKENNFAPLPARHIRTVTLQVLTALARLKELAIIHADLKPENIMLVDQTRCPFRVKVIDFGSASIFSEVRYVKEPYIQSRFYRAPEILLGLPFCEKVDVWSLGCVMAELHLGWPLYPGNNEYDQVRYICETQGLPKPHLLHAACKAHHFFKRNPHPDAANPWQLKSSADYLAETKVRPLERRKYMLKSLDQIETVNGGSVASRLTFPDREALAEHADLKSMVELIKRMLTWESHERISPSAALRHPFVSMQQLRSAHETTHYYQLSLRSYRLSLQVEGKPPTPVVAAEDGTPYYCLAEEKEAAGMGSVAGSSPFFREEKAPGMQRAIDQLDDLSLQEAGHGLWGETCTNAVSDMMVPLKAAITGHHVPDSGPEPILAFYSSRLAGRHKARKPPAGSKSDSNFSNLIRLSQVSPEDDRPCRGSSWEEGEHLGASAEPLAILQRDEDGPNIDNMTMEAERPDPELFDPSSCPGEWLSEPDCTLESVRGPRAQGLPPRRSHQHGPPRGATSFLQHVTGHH
Outline: as §1

[4] = target: T4, kinases of the scanMAX Kinase assay panel (Homo sapiens, UniProt Q9UQB9); details: AURKC; 1 uM
T4 construct: purchased DiscoverX Co. (contract measurement) scanMAX Kinase assay panel
T4 sequence (Q9UQB9 1-309): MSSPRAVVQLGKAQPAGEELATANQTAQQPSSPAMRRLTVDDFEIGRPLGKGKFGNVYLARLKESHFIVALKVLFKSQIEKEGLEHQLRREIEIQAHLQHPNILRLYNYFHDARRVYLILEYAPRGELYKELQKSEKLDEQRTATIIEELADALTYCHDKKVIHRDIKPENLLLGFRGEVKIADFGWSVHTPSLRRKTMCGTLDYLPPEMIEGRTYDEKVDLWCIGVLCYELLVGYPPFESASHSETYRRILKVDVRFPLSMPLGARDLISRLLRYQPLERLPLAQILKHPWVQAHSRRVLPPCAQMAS
Outline: as §1

| Structure (SMILES) | remaining binding at 1 µM [1] [%] | remaining binding at 1 µM [2] [%] | remaining binding at 1 µM [3] [%] | remaining binding at 1 µM [4] [%] |
| --- | --- | --- | --- | --- |
| CCNc1nc(Nc2ccc(C(=O)N3CCC(N4CCOCC4)CC3)cc2OC)nc2[nH]cc(C(F)(F)F)c12 [Example 104, (4-((4-(ethylamino)-5-(trifluoromethyl)-7H-pyrrolo[2,3-d]pyrimidine-2-yl)amino)-3-methoxyphenyl)(4-morpholinopiperidine-1-yl)methanone] | 94 | 97 | 45 | 100 |
| CC1(Nc2nc(Nc3cnn([C@H]4CCN(C5COC5)C[C@@H]4F)c3Cl)nc3[nH]cc(C#N)c23)CC1 [Example 52, 2-((5-chloro-1-((3S,4S)-3-fluoro-1-(oxetane-3-yl)piperidine-4-yl)-1H-pyrazole-4-yl)amino)((1-methylcyclopropyl)amino)-7H-pyrrolo[2,3-d]pyrimidine-5-carbonitrile] | 100 | 53 | 39 | 7.1 |
| CNc1nc(Nc2ccc(C(=O)N3CCOCC3)cc2OC)nc2[nH]cc(C#N)c12 [Example 1, 2-((2-methoxy-4-(morpholine-4-carbonyl)phenyl)amino)-4-(methylamino)-7H-pyrrolo[2,3-d]pyrimidine-5-carbonitrile] | 97 | 99 | 95 | 100 |
